Assay results published in US11905264B1, “N′-(2-(5-(4-chlorophenyl)-1,3,4-oxadiazol-2-ylthio)acetoxy)-4-nitrobenzimidamide as an antimicrobial compound” (KING FAISAL UNIVERSITY, priority 2023, dated 2024).

What was measured:
Type in all cases: cell-based
[1] = tested on: Chrysosporium keratinophilum; assay: Agar plate disc-diffusion, antifungal inhibition zone; details: Sabouraud's dextrose agar, 72 hours
Procedure: (§1) The agar plate disc-diffusion method was applied. […] The discs were then placed onto the surface of agar plates (nutrient agar for bacteria and Sabouraud's dextrose agar for fungi) seeded with the test organism. Each plate contained 15 mL of the agar medium, previously seeded with 0.2 mL of the broth culture of each organism pregrown for 18 hours. The plates were incubated at 37° C. for 48 hours and 72 hours for fungi. The inhibition zones were measured in mm. Discs impregnated with DMSO were used as a control, and their inhibition zone was subtracted from the tested compound's actual inhibition zone.

[2] = tested on: Aspergillus flavus; assay: as above; details: Sabouraud's dextrose agar, 72 hours
Procedure: as §1

[3] = tested on: Escherichia coli; assay: Agar plate disc-diffusion, antibacterial inhibition zone; details: Gram negative, nutrient agar, 37° C.
Procedure: as §1

[4] = tested on: Pseudomonas aeruginosa; assay: as above; details: Gram negative, nutrient agar, 37° C.
Procedure: as §1

[5] = tested on: Staphylococcus aureus; assay: as above; details: Gram positive, nutrient agar, 37° C.
Procedure: as §1

[6] = tested on: Bacillus cereus; assay: as above; details: Gram positive, nutrient agar, 37° C.
Procedure: as §1

[7] = B = concentration of comp. = 30,000 μL
[8] = C = concentration of comp. = 50,000 μL
[9] = A = concentration of comp. = 10,000 μL

## N/C(=N\OC(=O)CSc1nnc(-c2ccc(Cl)cc2)o1)c1ccc([N+](=O)[O-])cc1 [Compound 3, N′-(2-(5-(4-chlorophenyl)-1,3,4-oxadiazol-2-ylthio)acetoxy)-4-nitrobenzimidamide]
[1]; A =
  inhibition zone, Chrysosporium keratinophilum, A: 26 mm
[1]; [7]
  inhibition zone, Chrysosporium keratinophilum, B: 28 mm
[1]; [8]
  inhibition zone, Chrysosporium keratinophilum, C: 41 mm
[2]; [9]
  inhibition zone, Aspergillus flavus, A: 23 mm
[2]; [7]
  inhibition zone, Aspergillus flavus, B: 27 mm
[2]; [8]
  inhibition zone, Aspergillus flavus, C: 39 mm
[3]; [9]
  inhibition zone, Escherichia coli, A: 27 mm
[3]; [7]
  inhibition zone, Escherichia coli, B: 31 mm
[3]; [8]
  inhibition zone, Escherichia coli, C: 50 mm
[4]; [9]
  inhibition zone, Pseudomonas aeruginosa, A: 22 mm
[4]; [7]
  inhibition zone, Pseudomonas aeruginosa, B: 26 mm
[4]; [8]
  inhibition zone, Pseudomonas aeruginosa, C: 40 mm
[5]; [9]
  inhibition zone, Staphylococcus aureus, A: 17 mm
[5]; [7]
  inhibition zone, Staphylococcus aureus, B: 20 mm
[5]; [8]
  inhibition zone, Staphylococcus aureus, C: 37 mm
[6]; [9]
  inhibition zone, Bacillus Cereus, A: 27 mm
[6]; [7]
  inhibition zone, Bacillus Cereus, B: 29 mm
[6]; [8]
  inhibition zone, Bacillus Cereus, C: 40 mm
